Results: patent publication US20240391902A1, “Crystalline Form of Compound” (Shenzhen Forward Pharmaceuticals Co., Limited, priority 2020, published 2024)
“Also recorded” adds a separate entry of the source. Like-named read-outs stand apart in the source and are kept apart here.

Legend:
[1] = Solid storage stability test; type: physicochemical; conditions: for chemical and physical stability after storage: solid/25° C./60% RH/open/1 week and/or solid/60° C./closed container/1 week
Method: Each amorphous salt solid was weighed (two 2 mg samples were weighed for purity testing after solid storage stability study, and one 10 mg sample was weighed for XRPD testing after solid storage stability study) and placed in a glass vial. In a 25° C./60% RH solid storage stability test, the amorphous salt solid was placed in a 25° C./60% RH constant temperature and humidity chamber, and placed in the dark for 1 week (i.e. “solid/25° C./60% RH/open/1 week”), and in a 60° C. solid storage stability test, the amorphous salt solid was sealed in an oven at 60° C. and heated for 1 week in the dark (i.e. “solid/60° C./closed container/1 week”). Then the sample was taken out for purity testing, crystal form detection and appearance observation, respectively.

[2] = Solid solubility test (2 h and 24 h); type: physicochemical; conditions: for Solubility measured at 24 h: 37° C., based on free base
[3] = Solid solubility test (2 h and 24 h); type: physicochemical; conditions: Test ES4: FaSSIF-V1 (pH 6.5); for Solubility measured at 2 h: 37° C., based on free base
Method: 5 samples were weighed for each amorphous salt solid (equivalent to 20 mg of free base), and 10 mL of the following solvents were respectively added: 0.1N HCl solution (pH 1.0), 50 mM phosphate buffer (pH 4.5), FeSSIF-V1 (pH 5.0), FaSSIF-V1 (pH 6.5) and SGF (pH 2.0), and stirred at 37° C. for 2 h. The suspension was then centrifuged at 37° C., the supernatant was measured for solubility by HPLC, and the solid fraction was measured for XRPD. The target solubility was at least 2 mg (based on free base)/mL.

[4] = Drug absorption test in male Han-Wister rats; type: in vivo; conditions: for F: intragastric versus intravenous administration, doses 80, 100, 93.2, 81.1 mg/kg for Example 1, 2, 3, 4
Method: Intravenous administration: Three healthy male Han-Wister rats having a body weight of 250-350 g were provided by Beijing Vital River Laboratory Animal Technology Co., Ltd. The above compound of Example 1 was administered intravenously at the doses (calculated based on free base) listed in Table 1 below, respectively. Before administration and 15 min, 0.5 h, 1.0 h, 2.0 h, 4.0 h, 8.0 h, 12 h, and 24 h after administration, jugular vein puncture was performed to take 0.05 mL of blood, plasma was separated and prepared, and the drug concentration in the plasma was measured by liquid chromatography-tandem mass spectrometry (LC-MS) to obtain a drug concentration-time curve.
Intragastric administration: Twelve healthy male Han-Wister rats having a body weight of 250-350 g were provided by Beijing Vital River Laboratory Animal Technology Co., Ltd. and randomly divided into 4 groups. The above compounds of Example 1, Example 2, Example 3 and Example 4 were administered intragastrically at the doses (calculated based on free base) listed in Table 2 below, respectively. Before administration and 15 min, 0.5 h, 1.0 h, 2.0 h, 4.0 h, 8.0 h, 12 h, and 24 h after administration, jugular vein puncture was performed to take 0.05 mL of blood, plasma was separated and prepared, and the drug concentration in the plasma was measured by liquid chromatography-tandem mass spectrometry (LC-MS) to obtain a drug concentration-time curve.

[5] = Chemical and physical stability of the salts at the end of the preparation; type: physicochemical
Excerpt: It is crucial for drug development whether the salts obtained as above have chemical and physical stability at the end of the preparation.

[6] = Test BS1: solid/25° C./60% RH/open/1 week
[7] = Test BS2: solid/60° C./closed container/1 week
[8] = intragastric administration, doses 80, 100, 93.2, 81.1 mg/kg for Example 1, 2, 3, 4 (calculated based on free base)

Compound	Color [1, 6]	Morphology (XRPD crystallinity) [1, 6]	Morphology (agglomeration, appearance) [1, 6]	Color [1, 7]	Morphology (XRPD crystallinity) [1, 7]	Morphology (agglomeration, appearance) [1, 7]	pH measured at 2 h [3]	Solubility measured at 2 h [3]	AUC0-t [4, 8]	Cmax [4, 8]	T1/2 [4, 8]	F [4]	other results
C=CC(=O)Nc1cc(Nc2ncnc(-c3cn(C)c4ccccc34)n2)c(OC)cc1N(C)CCN(C)C [Example 4]	no color change	amorphous (FIG. 93),	no agglomeration	no color change	amorphous (FIG. 93),	no agglomeration	(6.5)	>2000 µg/mL	9703 ng·h/mL	1376 ng/mL	6.17 h	26.8%	chemical and physical stability after storage ([1]; listed as 1 eq. mesylate salt): chemically and physically stable; chemical and physical stability after storage ([1]; listed as amorphous 1 eq. mesylate salt): chemically and physically stable; physical and chemical stability (in words) ([1]; solid/25° C./60% RH/open/1 week, listed as amorphous 1 eq. mesylate salt): good physical and chemical stability; physical and chemical stability (in words) ([1]; solid/60° C./closed container/1 week, listed as amorphous 1 eq. mesylate salt): good physical and chemical stability; pH measured at 24 h ([2]; Test ES3: FeSSIF-VI (pH 5.0)): (5.0); Solubility measured at 24 h ([2]; Test ES3: FeSSIF-VI (pH 5.0)): >2000 µg/mL; pH measured at 24 h ([2]; Test ES4: FaSSIF-VI (pH 6.5)): (6.6); Solubility measured at 24 h ([2]; Test ES4: FaSSIF-VI (pH 6.5)): >2000 µg/mL
C=CC(=O)Nc1cc(Nc2ncnc(-c3cn(C)c4ccccc34)n2)c(OC)cc1N(C)CCN(C)C [Example 2]	no color change	amorphous (FIG. 90),	no agglomeration	no color change	amorphous (FIG. 90),	no agglomeration	(6.5)	>2000 µg/mL	13060 ng·h/mL	1024 ng/mL	6.65 h	29.3%	chemical and physical stability after storage ([1]; listed as 1 eq. hydrochloride salt): chemically unstable; chemical and physical stability after storage ([1]; listed as amorphous 1 eq. hydrochloride salt): chemically unstable; physical and chemical stability (in words) ([1]; solid/25° C./60% RH/open/1 week, listed as amorphous 1 eq. hydrochloride salt): good physical and chemical stability
C=CC(=O)Nc1cc(Nc2ncnc(-c3cn(C)c4ccccc34)n2)c(OC)cc1N(C)CCN(C)C [Example 14]													chemical and physical stability at the end of the preparation ([5]; listed as amorphous sulfosalicylate salt (Sample No. Y11526-25-FD13-1,4-dioxane)): chemically and physically stable
C=CC(=O)Nc1cc(Nc2ncnc(-c3cn(C)c4ccccc34)n2)c(OC)cc1N(C)CCN(C)C [Example 15]													chemical and physical stability at the end of the preparation ([5]; listed as amorphous sulfosalicylate salt (Sample No. Y11526-25-FD12-1,4-dioxane)): chemically and physically stable
C=CC(=O)Nc1cc(Nc2ncnc(-c3cn(C)c4ccccc34)n2)c(OC)cc1N(C)CCN(C)C [Example 1]	no color change	amorphous (FIG. 89),	no agglomeration	no color change	medium crystallinity		(6.8)	>2000 µg/mL	3968 ng·h/mL	583 ng/mL		11.1%	physical and chemical stability (in words) ([1]; solid/25° C./60% RH/open/1 week, listed as amorphous free base): good physical and chemical stability; physical and chemical stability (in words) ([1]; solid/60° C./closed container/1 week, listed as amorphous free base): transformed from amorphous to a moderate crystallinity; pH measured at 24 h ([2]; Test ES3: FeSSIF-VI (pH 5.0)): (5.0); Solubility measured at 24 h ([2]; Test ES3: FeSSIF-VI (pH 5.0)): >2000 µg/mL; pH measured at 24 h ([2]; Test ES4: FaSSIF-VI (pH 6.5)): (6.8); Solubility measured at 24 h ([2]; Test ES4: FaSSIF-VI (pH 6.5)): >2000 µg/mL; half-life ([4]; male, Han-Wister, rat, plasma, iv, 1 mg/kg, intravenous administration, 1.0 mg/kg (calculated based on free base), rat plasma): 2.99 h; AUC0-t ([4]; male, Han-Wister, rat, plasma, iv, 1 mg/kg, intravenous administration, 1.0 mg/kg (calculated based on free base), rat plasma, read-out: AUC0-t): 446 ng·h/mL; Cmax ([4]; male, Han-Wister, rat, plasma, iv, 1 mg/kg, intravenous administration, 1.0 mg/kg (calculated based on free base), rat plasma, read-out: Cmax): 364 ng/mL; half-life ([4]; male, Han-Wister, rat, plasma, po, 81.1 mg/kg, intragastric administration, doses 80, 100, 93.2, 81.1 mg/kg for Example 1, 2, 3, 4 (calculated based on free base)): 3.36 h
C=CC(=O)Nc1cc(Nc2ncnc(-c3cn(C)c4ccccc34)n2)c(OC)cc1N(C)CCN(C)C [Example 3]	slight color change	amorphous (FIG. 91),	partial agglomeration	no color change	amorphous (FIG. 91),	no agglomeration	(6.1)	>2000 µg/mL	11213 ng·h/mL	1020 ng/mL	6.04 h	27.0%	chemical and physical stability after storage ([1]; listed as 2 eq. hydrochloride salt): physically unstable; chemical and physical stability after storage ([1]; listed as amorphous 2 eq. hydrochloride salt): physically unstable; physical and chemical stability (in words) ([1]; solid/25° C./60% RH/open/1 week, listed as amorphous 2 eq. hydrochloride salt): slight color change and showed a certain hygroscopicity (partial agglomeration); physical and chemical stability (in words) ([1]; solid/60° C./closed container/1 week, listed as amorphous 2 eq. hydrochloride salt): good physical and chemical stability
C=CC(=O)Nc1cc(Nc2ncnc(-c3cn(C)c4ccccc34)n2)c(OC)cc1N(C)CCN(C)C [Example 12]													chemical and physical stability at the end of the preparation ([5]; listed as amorphous sulfate salt): chemically stable; also recorded: physically unstable due to a certain hygroscopicity
C=CC(=O)Nc1cc(Nc2ncnc(-c3cn(C)c4ccccc34)n2)c(OC)cc1N(C)CCN(C)C [Example 13]													chemical and physical stability at the end of the preparation ([5]; listed as amorphous 2 eq. p-tosylate salt): chemically stable; also recorded: physically unstable due to caking and fusion to a glassy state upon short exposure to environmental conditions
C=CC(=O)Nc1cc(Nc2ncnc(-c3cn(C)c4ccccc34)n2)c(OC)cc1N(C)CCN(C)C [Example 7]	slight color change			no color change	amorphous (FIG. 98),	no agglomeration	(6.1)	>2000 µg/mL					chemical and physical stability after storage ([1]; listed as 2 eq. besylate salt): physically unstable; chemical and physical stability after storage ([1]; listed as amorphous 2 eq. besylate salt): physically unstable; physical and chemical stability (in words) ([1]; solid/25° C./60% RH/open/1 week, listed as amorphous 2 eq. besylate salt): slight color change and showed significant hygroscopicity (caking and fusion to a glassy state); physical and chemical stability (in words) ([1]; solid/60° C./closed container/1 week, listed as amorphous 2 eq. besylate salt): good physical and chemical stability
